Experimental findings from ChEMBL document CHEMBL1201862, “PubChem BioAssay data set” (2004) are described below.

Where “and” joins values, the source holds several entries; their conditions need not be identical. Equal values may be shown once. Calls of active or inactive are those of the source.

A short description of test [1]: microbe, parasite or virus in culture. The settings on record: Mycobacterium tuberculosis. Type of test: functional.
Test [2] relates to Vero. In words: cells. Type of test: functional, cell-based. The note with it: Chlorocebus sabaeus.
A short description of test [3]: HEp-2 cell cytotoxicity, dose response, cytotoxicity control for RSV inhibitor project, HTS (AID 2410). Type of test: functional. The note with it: human respiratory syncytial virus.
The nature of test [4]: Luminescence Cell-Based Dose Retest to Confirm Inhibitors of Cancer Stem Cells. [Related pubchem assays (depositor defined):AID2717, AID2721]. In kind it is functional. The note with it: Homo sapiens.
Test [5] has as its system Vero. The test can be described thus: cells. Type of test: functional. The note with it: Chlorocebus sabaeus.
Test [6] relates to BJ. The test can be described thus: cytotoxicity toward BJ-TERT-LT-ST fibroblasts, dose response, cell-based, RAS-independent, luminescence (AID 1935).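 Note: BJ fibroblasts immortalized with TERT plus LT and ST oncogenes.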 Type of test: functional. The settings on record: Homo sapiens.
The test system of test [7] is BJ. The test can be described thus: cells. Type of test: functional, cell-based. The settings on record: Homo sapiens.
Test [8] in a line: cytotoxicity toward DRD oncogenic fibroblasts, dose response, cell-based, non-viral oncogenic, luminescence (AID 1934). In kind it is functional. The note with it: Homo sapiens.
In test [9] the test system is BJ. In words: cytotoxicity toward BJ-TERT fibroblasts, dose response, cell-based, RAS-independent, luminescence (AID 1933). Type of test: functional. The settings on record: Homo sapiens.
The target in test [10] is T1, Microphthalmia-associated transcription factor (Homo sapiens, UniProt O75030).
T1 sequence (O75030 whole entry): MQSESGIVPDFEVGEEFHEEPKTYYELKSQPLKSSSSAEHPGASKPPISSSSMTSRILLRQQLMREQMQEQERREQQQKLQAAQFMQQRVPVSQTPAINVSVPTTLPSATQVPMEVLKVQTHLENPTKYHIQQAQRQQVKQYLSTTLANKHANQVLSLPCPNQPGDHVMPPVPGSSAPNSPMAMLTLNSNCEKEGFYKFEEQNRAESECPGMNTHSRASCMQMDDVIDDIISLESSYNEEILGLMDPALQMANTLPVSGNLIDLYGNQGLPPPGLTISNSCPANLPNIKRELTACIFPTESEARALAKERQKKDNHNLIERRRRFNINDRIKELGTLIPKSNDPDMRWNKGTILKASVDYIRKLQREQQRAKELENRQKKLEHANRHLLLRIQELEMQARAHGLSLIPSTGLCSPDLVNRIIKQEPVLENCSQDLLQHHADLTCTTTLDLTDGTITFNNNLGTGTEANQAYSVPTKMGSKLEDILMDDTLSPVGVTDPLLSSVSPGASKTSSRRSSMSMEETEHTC
In words: TRPM1 promoter luciferase signal decrease, dose response, MITF inhibitor project, cell-based, SK-MEL-5, cherry-picked, set 3 (AID 493073).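 Note: SK-MEL-5 melanoma cells with luciferase driven by the MITF target TRPM1 promoter.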 Type of test: functional.

The nature of test [11]: A Cell Based Secondary Assay To Explore Cytotoxicity of Compounds that Sensitize Mycobacterium Tuberculosis to Beta-Lactam Antibiotics. In kind it is functional.
Test [12] deals with Escherichia coli. In words: microbe, parasite or virus in culture.
The nature of test [13]: THP-1 cell cytotoxicity, dose response, cytotoxicity control for non-replicating M. tuberculosis project (AID 489025). Type of test: functional.
In test [14] the target is Heat shock protein HSP 90-alpha (Homo sapiens, UniProt P07900). In kind it is functional, organism-based.
Test [15] addresses Glucose-6-phosphate 1-dehydrogenase (Homo sapiens, UniProt P11413). In words: human G6PD enzyme inhibitors, dose response, selectivity assay for P. falciparum G6PD inhibitor project, biochemical, fluorescence (AID 504792). In kind it is functional.
Test [16] concerns the target T2, Hexokinase (Trypanosoma brucei, UniProt Q38C41).
T2 sequence (Q38C41 whole entry): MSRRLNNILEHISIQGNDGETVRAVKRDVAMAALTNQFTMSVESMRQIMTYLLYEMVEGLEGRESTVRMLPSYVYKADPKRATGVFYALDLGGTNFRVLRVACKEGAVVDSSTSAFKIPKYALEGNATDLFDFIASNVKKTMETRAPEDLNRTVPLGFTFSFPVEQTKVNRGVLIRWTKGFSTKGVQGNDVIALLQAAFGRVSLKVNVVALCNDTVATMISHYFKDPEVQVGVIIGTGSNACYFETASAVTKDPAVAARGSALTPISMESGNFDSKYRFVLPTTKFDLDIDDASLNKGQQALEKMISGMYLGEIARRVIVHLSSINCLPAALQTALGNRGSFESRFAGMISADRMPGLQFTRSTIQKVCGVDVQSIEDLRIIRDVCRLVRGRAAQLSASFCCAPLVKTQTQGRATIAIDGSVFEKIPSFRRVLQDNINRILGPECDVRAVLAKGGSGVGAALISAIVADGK
The test can be described thus: Confirmation assay for inhibitors of Trypanosoma brucei hexokinase 1-Analogue-first series. [Related pubchem assays (depositor defined):AID1430, AID1632, AID2516, AID2560, AID2579, AID2600, AID449725, AID492951]. In kind it is functional.

The target in test [17] is Eukaryotic translation initiation factor 4E (Mus musculus, UniProt P63073). In words: eIF4E–eIF4G protein interaction inhibitors, dose response, biochemical, TR-FRET (AID 855).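 Note: potency for disrupting eIF4E binding to eIF4GI seen as loss of FRET.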 In kind it is functional.
Eukaryotic translation initiation factor 4E, sequence (P63073 whole entry): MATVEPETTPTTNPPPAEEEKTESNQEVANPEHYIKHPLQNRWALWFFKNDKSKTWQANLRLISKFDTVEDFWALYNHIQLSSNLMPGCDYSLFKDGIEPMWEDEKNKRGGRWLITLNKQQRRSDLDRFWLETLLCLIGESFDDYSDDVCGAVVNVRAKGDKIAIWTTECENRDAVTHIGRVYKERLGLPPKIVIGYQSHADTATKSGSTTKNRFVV

Glucose-6-phosphate 1-dehydrogenase, sequence (P11413 whole entry): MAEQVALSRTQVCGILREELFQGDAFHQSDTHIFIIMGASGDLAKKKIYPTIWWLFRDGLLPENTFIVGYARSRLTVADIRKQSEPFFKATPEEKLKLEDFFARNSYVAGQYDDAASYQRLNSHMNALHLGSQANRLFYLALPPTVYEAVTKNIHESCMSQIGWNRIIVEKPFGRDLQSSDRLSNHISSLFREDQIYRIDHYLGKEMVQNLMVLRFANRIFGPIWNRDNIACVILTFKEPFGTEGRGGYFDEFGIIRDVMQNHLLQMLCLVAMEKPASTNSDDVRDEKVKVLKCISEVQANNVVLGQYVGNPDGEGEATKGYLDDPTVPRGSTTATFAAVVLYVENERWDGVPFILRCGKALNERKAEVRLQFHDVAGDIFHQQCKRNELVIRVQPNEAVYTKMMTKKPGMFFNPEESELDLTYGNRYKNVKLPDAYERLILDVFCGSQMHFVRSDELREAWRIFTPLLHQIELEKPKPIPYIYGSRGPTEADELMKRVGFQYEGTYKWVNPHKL

In the case of `COc1ccc(C(=O)/C=C/c2cc(OC)c(O)c(OC)c2)c(F)c1`, the CC50 in [1] is 25.7 µM (active); in test [3], 14.3 µM (active); in test [5] it was 18.7 µM (active). Also, the IC50 – broadly, the concentration that inhibits the measured activity by half – in [2] was > 25 µM (active). The AC50 (commonly the concentration at which the activity in the assay is half-maximal) in test [4] is 7.21 µM (active).

Regarding `CCCN(CC(=O)Nc1ccccc1C)C(=O)CCl`, the EC50 (usually the concentration at which the effect is half-maximal) in test [6] was > 150 µM (inconclusive); in test [7] it was 14.9 µM (inconclusive); in [8], 8.23 µM (active); in test [9] it was 4 µM (active). Besides, the CC50 in [5] was 9.42 µM (active). Moreover, in test [10], the AC50 is 4.04 µM (active).

For the molecule `Cc1cccc(NC(=O)[C@H](Cc2c[nH]c3ccccc23)NC(=O)[C@@H]2Cc3ccccc3CN2)c1`, the EC50 in test [6] was > 150 µM (not active); in test [7], 26.9 µM (active); in test [8], 71.3 µM (active); in [9] it was 28.3 µM (active). The IC50 in test [2] is 4.39 µM (active). In test [5], the CC50 is 19.4 µM (active).

Turning to `O=C(NNC(=S)NC(=O)c1sc2ccccc2c1Cl)c1ccc(Cl)cc1`, the IC50 in [2] was 10 µM (active). Also, the CC50 in test [5] is > 25 µM (active).

For `CN(C)S(=O)(=O)c1ccc(C(=O)/C=C/c2cccnc2)cc1`, in [11], the CC50 was 17.5 µM (active). Further, the EC50 in [6] is > 150 µM (inconclusive); in [7] it was > 150 µM (not active); in test [8], 10.4 µM (active); in [9] it was 10.4 µM (active).

For the molecule `CC(C)Cn1c2c(c(O)c(C(=O)Nc3ccc(F)cc3)c1=O)CCCC2`, in test [11], the CC50 was > 40 µM (active).

For the molecule `COCc1cc(C)n(CC(=O)NC(C)c2ccccc2)c(=O)c1C#N` (stereo unspecified), the AC50 in [12] was 27.1 µM (active).

For `CCc1sc2nc(SCC(=O)Nc3cc(C)on3)n(-c3cccc(OC)c3)c(=O)c2c1C`, the CC50 in test [11] was 36.3 µM (active).

As for `O=C(NCc1cccc(Cl)c1)c1cnn2c1NC(c1ccco1)CC2C(F)(F)F` (stereo unspecified), in [12], the AC50 is 24.2 µM (active).

As for `Cc1cccc(NCc2ccc([N+](=O)[O-])s2)c1`, the CC50 in test [13] was > 40 µM (active).

For `CCC1Oc2nc(SC)nnc2-c2ccccc2N1C(=O)c1ccccc1` (stereo unspecified), the AC50 in test [12] is 24.1 µM (active).

`O=C(/C=C/c1ccccn1)c1cc(Br)ccc1O`: the CC50 in test [11] was > 40 µM (active). The AC50 in test [14] was 2.03 µM (active).

For `N#CC(C#N)=C1C=CC=CN1/C(=C\c1ccccc1Cl)C(=O)c1ccccc1`, the IC50 was > 25 µM (active) in [2] and > 80 µM (inactive) in test [15]. In test [5], the CC50 is 24.5 µM (active).

For `CC1(c2ccc(C(=O)Nc3cc(Cl)ccc3C(=O)O)cc2)CC1`, the IC50 in [16] was 8 µM (active) and 4.24 µM (active).

As for `CN(C)c1cccc(NC(=O)Cn2sc3ccccc3c2=O)c1`, in test [16], the concentration for half-maximal inhibition (IC50) was 8.21 µM (active).

`O=c1c2ccccc2[s+]([O-])n1-c1ccc(Cl)cc1` (stereo unspecified): in test [16], the IC50 is > 25 µM (inactive).

`COc1ccccc1NC(=O)Cn1sc2ccccc2c1=O`: the IC50 in test [16] is 6.28 µM (active).

As for `COC(CN(C)C(=O)C1CCCN(S(=O)(=O)c2ccc3c(c2)oc(=O)n3C)C1)OC` (stereo unspecified), the AC50 in test [12] is 27.3 µM (active).

As for `O=C(N/N=C/c1ccc2c(c1)OCO2)c1sc2cc(Cl)ccc2c1Cl`, the CC50 in [11] was > 40 µM (active). The IC50 in [17] is > 64 µM (inactive).

Turning to `COc1cc(/C=N/NC(=O)c2cc(-c3cccc(OC(C)C)c3)nc3ccccc23)ccc1O`, in test [2], the IC50 is > 25 µM (active). Besides, the CC50 in [3] was 15.5 µM (active); in [5] it was > 25 µM (active).

With `O=c1c(/N=N/c2ccc(O)cc2)c(-c2ccccc2)[nH]n1-c1ccc([N+](=O)[O-])cc1`, in [11], the CC50 was 17.7 µM (active).
